The record followed here is ChEMBL document CHEMBL5550095 (Bioorg Med Chem, 2024).

Series [1] can be described thus: Inhibition of Plasmodium falciparum PYK-1.
Series [2] has as its system Plasmodium falciparum. Put plainly: Antiplasmodial activity against Plasmodium falciparum K1 infected in erythrocytes assessed as reduction in parasite DNA after 72 hrs by SYBR Green I fluorescence based assay. Type of series: functional, organism-based. The note with it: K1, Erythrocyte.
Series [3] is described as follows: Selectivity index, ratio of CC50 for human HepG2 cells to EC50 for Plasmodium falciparum K1. It is filed as toxicity. As to conditions: read-out: Ratio CC50/EC50.
Series [4] in a line: Cytotoxicity against human HepG2 cells incubated for 72 hrs by MTT assay. It is filed as toxicity, cell-based. For orientation: Tetrazolium dyes change colour on reduction, which living cells bring about.
The nature of series [5]: Lipophilicity, logD of the compound at pH 7.4. Type of series: physicochemical. The note with it: buffer.
Series [6] is described as follows: Half-life in mouse plasma. Type of series: ADME, cell-free.
Series [7] in a line: Half-life in mouse liver microsomes. It is filed as ADME, Microsome.
The target of series [8] is Bifunctional dihydrofolate reductase-thymidylate synthase (Plasmodium falciparum K1) (UniProt P13922). Kind of series: Inhibition of Plasmodium falciparum DHFR.

Molecules are shown by their SMILES. Active and inactive are the calls of the source. Bounds are passed on as bounds.

What is called IC50 is the concentration that inhibits the measured activity by half. Read a high IC50 as lower potency. In general, EC50 refers to the concentration at which the effect is half-maximal. A word on the CC50: it is the concentration giving 50% cytotoxicity. Low readings indicate greater toxicity to the cells, high ones lower toxicity to the cells. For orientation: logD means the decadic logarithm of the distribution of all forms, ionised or not, between an organic phase and buffer at a given pH. The low end stands for a more hydrophilic compound, the high end for a more lipophilic compound. One may read the half-life as the time needed for the level to fall by half in the phase considered. A higher half-life goes with slow loss.

Chain of Bifunctional dihydrofolate reductase-thymidylate synthase (Plasmodium falciparum K1) (P13922 whole entry, looked up): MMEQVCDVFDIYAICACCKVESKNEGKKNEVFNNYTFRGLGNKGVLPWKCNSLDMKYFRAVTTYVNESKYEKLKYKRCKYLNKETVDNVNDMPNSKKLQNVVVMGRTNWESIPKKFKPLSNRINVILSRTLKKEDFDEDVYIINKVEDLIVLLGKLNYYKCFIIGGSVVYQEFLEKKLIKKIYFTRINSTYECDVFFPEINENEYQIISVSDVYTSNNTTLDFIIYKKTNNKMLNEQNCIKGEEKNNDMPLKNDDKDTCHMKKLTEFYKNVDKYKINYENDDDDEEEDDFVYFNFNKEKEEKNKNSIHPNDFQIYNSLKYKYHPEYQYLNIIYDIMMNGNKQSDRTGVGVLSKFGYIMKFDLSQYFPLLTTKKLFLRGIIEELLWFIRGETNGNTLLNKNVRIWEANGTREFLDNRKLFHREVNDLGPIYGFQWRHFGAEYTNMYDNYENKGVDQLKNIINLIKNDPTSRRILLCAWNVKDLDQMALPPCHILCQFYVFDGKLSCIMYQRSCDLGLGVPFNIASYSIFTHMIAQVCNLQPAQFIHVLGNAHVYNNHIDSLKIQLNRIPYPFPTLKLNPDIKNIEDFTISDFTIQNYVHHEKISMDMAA

As to `O=C(O)C(=O)O` [OXALIC ACID], the IC50 in series [1] came out at 150 µM.

Turning to `CCN(CC)CCCC(C)Nc1ccnc2cc(Cl)ccc12` (configuration not stated) [CHLOROQUINE], the 50% effective concentration (EC50) in series [2] amounted to 0.5 µM. Besides, the selectivity ratio in series [3] was found to be 60.

Turning to `C[C@H]1c2cccc(O)c2C(=O)C2=C(O)[C@]3(O)C(=O)C(C(N)=O)=C(O)[C@@H](N(C)C)[C@@H]3[C@@H](O)[C@@H]21` [DOXYCYCLINE ANHYDROUS], the concentration for a half-maximal effect (EC50) in series [2] worked out at 5 µM. Further, the selectivity ratio in series [3] was determined as 4.

Turning to `C[C@H]1[C@H](OC(=O)CCC(=O)O)O[C@@H]2O[C@@]3(C)CC[C@H]4[C@H](C)CC[C@@H]1[C@@]24OO3` [ARTESUNATE], the concentration giving a half-maximal response (EC50) in series [2] is 0.004 µM.

For the compound `CC(C)(C)OC(=O)NCCCOCCOCCOCCCNCc1ccc2c(Nc3ccc(Cl)cc3Cl)nc(C(Cl)(Cl)Cl)nc2c1`, in series [2], the concentration for a half-maximal effect (EC50) came to 0.15 µM. Moreover, the half-maximal cytotoxic concentration (CC50) at 72 h in series [4] was determined as 3.1 µM. Moreover, the selectivity ratio in series [3] is 21.

`Clc1ccc(Nc2nc(C(Cl)(Cl)Cl)nc3ccccc23)c(Cl)c1`: in series [5], the log distribution coefficient (logD) came to 3.6. Further, the half-life in series [6] was more than 360 min; in series [7], 18 min. Also, the inhibition result in series [8] was “Active”.

In series [1], `Cc1ccc(C(=O)Nc2ccc(S(=O)(=O)O)c3cc(S(=O)(=O)O)cc(S(=O)(=O)O)c23)cc1NC(=O)c1cccc(NC(=O)Nc2cccc(C(=O)Nc3cc(C(=O)Nc4ccc(S(=O)(=O)O)c5cc(S(=O)(=O)O)cc(S(=O)(=O)O)c45)ccc3C)c2)c1` [SURAMIN] showed an IC50 of 128 µM.

In the case of `CC(C)(C)OC(=O)NCCOCCOCCNCc1ccc2c(Nc3ccc(Cl)cc3Cl)nc(C(Cl)(Cl)Cl)nc2c1`, the EC50 in series [2] was found to be 0.6 µM. This compound also registered a CC50 at 72 h in series [4] of 19 µM. In addition, in series [3], the selectivity ratio is 32.
